The test concerns the target T1, LuxR01 (Shewanella baltica, UniProt A3CYS4).
T1 construct: gene Sbal_0102
T1 sequence (A3CYS4 1-175): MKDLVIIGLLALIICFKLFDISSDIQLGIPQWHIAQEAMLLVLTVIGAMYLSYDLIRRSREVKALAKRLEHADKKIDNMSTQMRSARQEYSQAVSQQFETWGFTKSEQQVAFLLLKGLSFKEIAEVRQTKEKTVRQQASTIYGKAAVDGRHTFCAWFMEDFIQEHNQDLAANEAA
The test is described as follows: FLAG bead pull-down from ligand mixture, UHPLC-MS/MS. Format: binding. To be noted: mixture of C4-HSL, C6-HSL, PL, LL and PP, 1 uM, PBS, 4 °C, 1 h; empty-vector control.

Regarding `O=C1N[C@@H](Cc2ccccc2)C(=O)N2CCC[C@@H]12` [PP, cyclo-(L-Pro-L-Phe)], the “FLAG bead pull-down from ligand mixture, UHPLC-MS/MS” value was “PP was detected in LuxR01 and LuxR02 protein binding system”.

These data come from article PMC6370745, “Positive Regulation of Spoilage Potential and Biofilm Formation in Shewanella baltica OS155 via Quorum Sensing System Composed of DKP and Orphan LuxRs” (Frontiers in Microbiology, 2019).
